# Measurements published in PubChem BioAssay AID549 (SRMLSC, 2006).
# Calls of active or inactive are those of the source.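 Rule for the calls: active = clearly stronger inhibition of phosphomevalonate kinase than of the coupling enzymes alone in a parallel counterscreen; inactive = the rest.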
# Target: phosphomevalonate kinase (Streptococcus pneumoniae D39)
# Experiment: phosphomevalonate kinase inhibition IC50 – biochemical, mevalonate pathway, coupling enzyme counter-screen, dose response (AID 549)
# Settings: PMK enzyme, PK/LDH coupled NADH absorbance 340 nm
row,SMILES,outcome
1,O=C(CSCc1cccc(F)c1)N1CCN(c2ccccc2)CC1,inactive
2,COc1ccc(S(=O)(=O)N2CCN(C3CCCCCCC3)CC2)cc1,inactive
3,CC(C)(C)NC(=O)CSc1nnc(-c2ccccn2)n1-c1ccccc1,inactive
4,COc1ccccc1CNC(=O)C1CCN(S(=O)(=O)N2CC(C)CC(C)C2)CC1 (centres undefined),inactive
5,COc1ccc(C2(C)NC(=O)N(Cc3cc(Cl)cc4c3OCOC4)C2=O)cc1OC (centres undefined),inactive
6,Clc1ccc(C(c2nnnn2C2CCCC2)N2CCN(Cc3ccncc3)CC2)cc1 (centres undefined),inactive
7,Cn1c(SCC(=O)N2CCOCC2)nnc1-c1ccc(NC(=O)c2ccccc2F)cc1,inactive
8,CCc1nnc(NC(=O)c2cccs2)s1,inactive
9,N#Cc1cc2ccccc2nc1SCc1cccnc1,inactive
10,CC(C)(C)c1ccccc1OCCCCCNCCO,inactive
11,N#Cc1c(N)sc(=S)c2c1CCN(Cc1ccccc1)C2,inactive
12,CCOC(=O)C1=C(NC(=O)c2ccc(Br)o2)Nc2ccccc2N=C1,inactive
13,COc1ccc(NC(=O)N(C2CCCCC2)C(C)c2ccco2)c(OC)c1 (centres undefined),inactive
14,Cc1nnc(SCC(=O)N2CC(=O)Nc3ccccc32)n1-c1ccccc1,inactive
15,O=C(O)CCS(=O)(=O)Cc1ccccc1F,inactive
16,COC(=O)c1nonc1NCn1nnc2ccccc21,inactive
17,Cn1cnnc1SCC(=O)n1c2ccccc2c2ccccc21,inactive
18,CCOc1ccc(S(=O)(=O)NCCCN2CCOCC2)c2ccccc12,inactive
19,COc1ccc(-n2c(SCc3nnc(-c4ccccc4)o3)nnc2-c2ccccc2)cc1,inactive
20,CCCCNc1nc2c(c(=O)n(C)c(=O)n2C)n1CCC,inactive
21,CCCOc1ccc(-c2nnn(CC(=O)Nc3cccc(C(=O)OC)c3)n2)cc1,inactive
22,CCOC(=O)CCn1c2nc(C)cc(C)c2c(=O)n1-c1ccccc1,inactive

row,SMILES,outcome
1,N=c1n(CCN2CCOCC2)c2ccccc2n1CC(=O)c1ccc(Cl)c(Cl)c1,inactive
2,CCOc1ncccc1C(=O)OCc1cc(=O)n2c(n1)sc1ccccc12,inactive
3,CCCC(=O)Nc1cccc(NC(=O)CN2CCN(c3ccccc3OC)CC2)c1,inactive
4,CS(=O)(=O)N1CCN(C(=O)CCC2CCCC2)CC1,inactive
5,O=C(c1ccc(CS(=O)(=O)Cc2ccc(Cl)cc2)o1)N1CCCC1,inactive
6,CCOC(=O)c1c(C)n(C)c2ccc(OC)c(NS(=O)(=O)c3ccc(Cl)s3)c12,inactive
7,Cc1ccc(-c2noc(CCC(=O)NCCN3CCc4ccccc4C3)n2)cc1,inactive
8,c1ccc2sc(SCc3ccc(-c4nnco4)cc3)nc2c1,inactive
9,CCN(CC)C(=O)C1CCCN(C/C(C)=C/c2ccccc2)C1 (centres undefined),inactive
10,O=C(C1CCN(Cc2ccc(OCc3ccccc3)cc2)CC1)N1CCCC1,inactive
11,CCS(=O)(=O)N1CCC(C(=O)NCC2CCCO2)CC1 (centres undefined),inactive
12,CC(Sc1ncc(C#N)c(N)n1)C(=O)Nc1ccccc1 (centres undefined),inactive
13,O=C(NC1CC1)c1ccc2c(c1)ncn2C1CCCC1,inactive
14,O=C(CSc1nc(-c2ccccc2)cs1)N1CCN(C(=O)c2ccco2)CC1,inactive
15,CCCN1CCN(CCCNC(=O)Cn2nc(-c3ccccc3)ccc2=O)CC1,inactive
16,Cc1occc1-c1nnc(SCC(=O)N2CCOCC2)n1Cc1ccco1,inactive
17,CC(C)=CC(=O)Nc1ccc(Br)cc1,inactive
18,Cc1nnc(SCC(=O)Nc2nsc(-c3ccccc3)n2)s1,inactive
19,O=C(c1cccnc1)N1CCc2ccccc2C1,inactive
20,COc1ccc2c(c1)OC1(C)CC2C(C(=O)c2ccccc2OC)C(=O)N1 (centres undefined),inactive
21,CCc1nn(C(C)C(=O)NCCc2ccc(OC)c(OC)c2)c(=O)c2cc3occc3n12 (centres undefined),inactive
22,Cc1onc(-c2c(Cl)cccc2Cl)c1C(=O)Nc1ccc2c(c1)OCO2,inactive

row,SMILES,outcome
1,Cc1csc(C(C#N)C(=O)c2ccc(S(=O)(=O)N3CCCC3)cc2)n1 (centres undefined),inactive
2,COc1ccc(C(=O)Nc2ccccc2C(=O)NC(C(=O)NCc2ccco2)C(C)C)cc1 (centres undefined),inactive
3,CC(C)COC(=O)n1ccc(C(=O)N2CCCCC2)n1,inactive
4,COc1cccc(CNC(=O)C2CCCN(c3nn4c(=O)cc(C)nc4s3)C2)c1 (centres undefined),inactive
5,NC(=O)CCN(Cc1ccccc1)S(=O)(=O)c1ccccc1,inactive
6,COc1ccc(N2CCN(C(c3ccco3)c3sc4nc(C)nn4c3O)CC2)cc1 (centres undefined),inactive
7,O=C(c1cc(-c2ccco2)on1)N1CCCc2ccccc21,inactive
8,Cn1c(SCC(=O)NCc2ccco2)nc2ccccc2c1=O,inactive
9,COCCCNC(=O)c1ccc(N2CCCC2)c(NS(=O)(=O)c2ccc(C)cc2)c1,inactive
10,CCn1c2ccccc2c2cc(CN3CCN(C(=O)c4ccco4)CC3)ccc21,inactive
11,N#Cc1cccc(CSc2nnc(CCCO)n2-c2ccccc2)c1,inactive
12,CS(=O)(=O)N1CCCC(C(=O)NCc2ccccn2)C1 (centres undefined),inactive
13,CC1SC(=NC(=O)c2ccco2)NC1=O (centres undefined),inactive
14,Cc1cc2c(C(F)(F)F)cc(=O)oc2c2c1NCCC2,inactive
15,CN(C(=O)c1cnccn1)c1nnc(-c2cccnc2)s1,inactive
16,CN(C)c1ccc(CNCCC2(O)CCOC(C)(C)C2)cc1 (centres undefined),inactive
17,CN(C(=O)C1CCOC1)c1nnc(C2CCOC2)s1 (centres undefined),inactive
18,Cn1c(=O)c2c(nc(N3CCOCC3)n2C)n(C)c1=O,inactive
19,O=C(Cc1coc(-c2ccc(F)cc2)n1)N1CCOCC1,inactive
20,CC(C)OC(=O)CN1C(=O)c2ccccc2C1=O,inactive
21,Cc1nnc(SCC(=O)Nc2ncc(Cc3ccc(F)cc3)s2)n1N,inactive
22,CCOC(=O)N1CCC(NC(=O)CCc2cn(C)c3ccccc23)CC1,inactive

row,SMILES,outcome
1,COC(=O)CNc1nc(-c2ccccc2F)nc2ccccc12,inactive
2,CC(C)OC(=O)CCC1(C(=O)O)CCC(=O)NC1 (centres undefined),inactive
3,CNC(=O)C1CC(=O)N(Cc2ccc3c(c2)OCO3)C(=Nc2ccc(OC)cc2)S1 (centres undefined),inactive
4,COc1ccccc1CNC(=O)C1CCN(c2nc3ccccc3o2)CC1,inactive
5,Cc1nn(Cc2ccccc2)c2c1C(c1ccncc1)C(C#N)=C(N)O2 (centres undefined),inactive
6,CCOC(=O)CC(=O)CSc1nnc2c(n1)[nH]c1ccccc12,inactive
7,Cc1ccc(-n2nc3c(c2NC(=O)c2c(-c4ccccc4Cl)noc2C)CS(=O)(=O)C3)c(C)c1,inactive
8,CCOCCCN1C(=O)CN(C2CCCCC2)C(=O)C1c1ccc(OCC)c(OC)c1 (centres undefined),inactive
9,O=C(COC(=O)CCc1c[nH]c(=O)[nH]1)Nc1ccccc1,inactive
10,Cc1csc(NC(=O)CN2CCCCCC2)n1,inactive
11,COCCCNC(=O)C1C2C=CC3(CN(Cc4ccc(C)cc4)C(=O)C13)O2 (centres undefined),inactive
12,COc1ccc(N2C(C)=CS/C2=C(/C#N)c2nnc(N3CCOCC3)n2-c2ccccc2)cc1,inactive
13,N#CC(C(=O)NC1CCCCC1)c1nc2ccccc2nc1N1CCCCC1 (centres undefined),inactive
14,Cc1cc(NCCCN2CCOCC2)n2nc(C)c(-c3ccc(F)cc3)c2n1,inactive
15,O=C(NCc1ccc2c(c1)OCO2)c1cc2n(n1)C(C(F)(F)F)CC(c1ccc3c(c1)OCO3)N2 (centres undefined),inactive
16,COc1ccc(C2C(=O)N(C3CCCCC3)CC(=O)N2CCc2ccccc2)cc1OC (centres undefined),inactive
17,COc1cccc2cc(C(=O)N3CCN(c4ccccc4F)CC3)c(=O)oc12,inactive
18,Cc1nc2ccc3nc(NC(=O)c4ccco4)sc3c2s1,inactive
19,O=C(CCc1nc2ccccc2c(=O)[nH]1)OCC(=O)N1CCN(S(=O)(=O)c2ccccc2)CC1,inactive
20,CS(=O)(=O)N1CCCC(C(=O)N2CCOCC2)C1 (centres undefined),inactive
21,CC(C)(C)NC(=O)CSc1ncnc2c1nnn2Cc1ccccc1Cl,inactive
22,CS(=O)(=O)N1CCCC(C(=O)NCc2cccs2)C1 (centres undefined),inactive

row,SMILES,outcome
1,O=c1c[n+]([O-])c2ccccc2n1OCc1c(F)cccc1F,inactive
2,C=CCn1c(NCc2ccccc2)nc2ccccc21,inactive
3,CCOC(=O)C1=C(N)OC2=C(C(=O)CCC2)C1c1ccc(C)s1 (centres undefined),inactive
4,CCS(=O)(=O)N1CCC(C(=O)NCc2ccco2)CC1,inactive
5,COCCNC(=O)C(c1ccc(C)o1)N(Cc1ccc(OC)cc1)C(=O)Cn1nnc2ccccc21 (centres undefined),inactive
6,Cc1cccc(-n2nc3c(c2NC(=O)c2ccco2)CSC3)c1C,inactive
7,COc1ccc(-c2coc3c(CN4CCCCC4)c(O)c(CN4CCCCC4)c(O)c3c2=O)cc1,inactive
8,CC(=O)NC1N=C(C)N(c2ccccc2)C1=O (centres undefined),inactive
9,Cc1ccc(-c2nnn(CC(=O)N(CC(=O)NCC3CCCO3)c3ccc(F)c(Cl)c3)n2)o1 (centres undefined),inactive
10,O=C(c1ccc2ccccc2c1)N1CCN(c2ccc(O)cc2)CC1,inactive
11,CC1CCN(C(=O)CSc2nc3ccccc3[nH]2)CC1,inactive
12,COc1ccc(C(c2nnnn2CC2CCCO2)N2CCN(c3ccccc3)CC2)cc1 (centres undefined),inactive
13,CC(C)CN(CC(C)C)S(=O)(=O)N1CCC(C(=O)NC2CCCCCCC2)CC1,inactive
14,CCC(Sc1nccn1C)C(=O)Nc1cccc2ccccc12 (centres undefined),inactive
15,CCCOc1ccc(C2C(=O)N(C3CCCCC3)CC(=O)N2CCCOCC)cc1OC (centres undefined),inactive
16,CNC(=O)Cn1ncc2c(C)n(Cc3ccc(C)cc3)c(C)c2c1=O,inactive
17,O=C(CCN1C(=O)c2ccccc2C1=O)NC1=NCCS1,inactive
18,CC(CN1CCN(C)CC1)OC(=O)c1ccc(Cl)cc1 (centres undefined),inactive
19,O=C1CC(c2ccccc2)CC(O)=C1C=NCC1CCCO1 (centres undefined),inactive
20,O=C(O)C1=C(C(=O)Nc2ccc(F)c(Cl)c2)CCCC1,inactive
21,OCCNCC1(O)C2CC3CC(C2)CC1C3 (centres undefined),inactive
